Reference: patent US20250376484A1, “PRMT5 INHIBITORS AND USES THEREOF” (Gilead Sciences, Inc., priority 2024, published 2025)

What was measured:
[1] = system: HCT116 MTAP-deleted cell lines; assay: Cell viability assay (CellTitre-Glo), HCT116 MTAP-deleted; type: cell-based; conditions: for CC50: Homo sapiens, HCT-116, 168 h, HCT116 MTAP-deleted cells, 7 days of treatment, CTG luminescence, read-out: MTAP^del HCT116 CC50; for Selectivity: WT HCT116 CC50 versus MTAP^del HCT116 CC50
Procedure: (§1) Control compounds were analyzed in parallel each time for quality control.
(§2) In Brief, on Day-1, a serial dilution of stock compounds in DMSO was performed using BioMek liquid handlers and dispensed using Echo acoustic dispenser into 384 well plates. Both tool compounds and sample compounds were spotted in the same plate for a dose response of PRMT5 inhibitors. Compound plates were stored as frozen until the cells were ready for seeding.
(§3) On Day 0, 100 HCT WT or HCT116 MTAP-deleted cells were seeded in compound-containing 384 well plates (50 μl per well) in RPMI 1640 media supplemented with 10% heat inactivated fetal bovine serum, Glutamax and penicillin streptomycin using EL460 liquid dispenser 5 μl cassette (BioTek, part no. 7170011). After equilibrating the plate in room temperature, the cells were incubated for 7 days inside the sealed incubator set at 37° C. with […] and 5% CO2.
(§4) On Day 7, the viability of cells was measured using a CTG assay kit (CellTitre-Glo; Promega cat no. G7573). Shortly, 40 μl per well of luminescent cell viability assay reagent were dispensed using EL460 liquid dispenser 5 μl cassette. CTG luminescence signal was measured using an EnVision plate reader (PerkinElmer) in accordance with manufacturer's instruction. The CC50 values for each compound after 7 days of treatment were calculated using 4 parameter non-linear logistical curve fit.

[2] = Cell viability assay (CellTitre-Glo), HCT116 WT; type: cell-based; conditions: human; HCT116 WT cells, 7 days of treatment, CTG luminescence
Procedure: as §1, §2, §3, §4

[3] = MDR1/BCRP assay: permeability in cPgp-KO-MDCK-WT cells; type: in vitro ADME; conditions: dog, test compounds at 1 μM, 2-hour time point, pH 7.4
Procedure: (§5) cPgp-KO-MDCK-WT, cPgp-KO-MDR1-KI, and cPgp-KO—BCRP—KI cells (all from Sigma) were cultured in Dulbecco's Modification of Eagle's Medium (DMEM) with 4.5 g/L glucose, sodium pyruvate, and GlutaMAX (Gibco) supplemented with 1% Pen/Strep and 10% fetal bovine serum. The cells were maintained in an incubator at 37° C., 90% humidity, and 5% CO2 until reaching confluence over 5 days in 96-well transwell plates. Experiments were conducted using an HBSS donor buffer (Invitrogen) containing 10 mM HEPES and 15 mM glucose, adjusted to pH 7.4. The receiver well contained HBSS buffer supplemented with 1% BSA, 10 mM HEPES, and 15 mM glucose, and the pH was adjusted to 7.4. TEER values were measured to assess membrane integrity after an initial equilibration with BSA-free transport buffer for 15 minutes. The experiment was started by adding dosing solutions containing test compounds at 1 μM. Cells were dosed on the apical (A) side or basolateral (B) side at 100 μl and 200 μl, respectively, to determine forward (A to B) and reverse (B to A) permeability. At the 2-hour time point, 50 μl samples were collected from the receiver compartment. Each compound was tested in 2 separate replicate wells for each condition. All samples were immediately collected into plates, and 50 μL of acetonitrile was added. Subsequently, 350 μl of 30:70 methanol: acetonitrile containing internal standard was added to precipitate proteins and stabilize the test compounds. To test for non-specific binding and compound instability, the total amount of the drug was quantified at the end of the experiment and compared to the material present in the original dosing solution as a percentage of the recovery. All samples were analyzed by LC-MS/MS using electrospray ionization.
(§6) The apparent permeability, Papp, and % recovery were calculated as follows: […]

BCRP = target: T1, BCRP (Homo sapiens, UniProt Q9UNQ0); assay: MDR1/BCRP assay: efflux ratio in cPgp-KO-BCRP-KI cells; type: in vitro ADME; conditions: dog, efflux ratio Papp (B-to-A)/Papp (A-to-B), 2-hour time point, read-out: cPgp-KO-BCRP-KI (ER)
T1 construct: host or cells: MDCK cells with canine Pgp knocked out and BCRP knocked in (cPgp-KO-BCRP-KI)
T1 sequence (Q9UNQ0 1-655): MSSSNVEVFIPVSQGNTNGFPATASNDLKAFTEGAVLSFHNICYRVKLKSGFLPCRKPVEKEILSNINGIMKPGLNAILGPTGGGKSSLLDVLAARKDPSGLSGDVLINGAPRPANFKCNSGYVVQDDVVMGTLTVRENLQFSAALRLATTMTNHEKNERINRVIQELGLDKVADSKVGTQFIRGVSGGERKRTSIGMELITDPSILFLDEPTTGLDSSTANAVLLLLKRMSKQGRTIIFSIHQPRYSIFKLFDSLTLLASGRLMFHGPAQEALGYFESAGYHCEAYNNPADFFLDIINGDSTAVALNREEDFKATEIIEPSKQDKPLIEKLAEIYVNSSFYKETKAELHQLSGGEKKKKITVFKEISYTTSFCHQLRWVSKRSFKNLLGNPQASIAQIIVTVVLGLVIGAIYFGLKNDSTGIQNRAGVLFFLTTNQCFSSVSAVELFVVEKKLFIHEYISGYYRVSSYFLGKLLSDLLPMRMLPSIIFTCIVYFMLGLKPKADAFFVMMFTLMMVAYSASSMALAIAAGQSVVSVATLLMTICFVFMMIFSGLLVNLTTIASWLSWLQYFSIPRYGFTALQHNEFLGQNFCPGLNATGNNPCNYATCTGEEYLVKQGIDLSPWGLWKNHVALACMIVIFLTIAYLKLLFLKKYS
Procedure: as §5, §6

MDR1 = target: T2, MDR1 (Homo sapiens, UniProt P08183); assay: MDR1/BCRP assay: efflux ratio in cPgp-KO-MDR1-KI cells; type: in vitro ADME; conditions: dog, MDCK-MDR1, efflux ratio Papp (B-to-A)/Papp (A-to-B), 2-hour time point, read-out: cPgp-KO-MDR1-KI (ER)
T2 construct: host or cells: MDCK cells with canine Pgp knocked out and MDR1 knocked in (cPgp-KO-MDR1-KI)
Procedure: as §5, §6

T2 sequence (P08183 whole entry): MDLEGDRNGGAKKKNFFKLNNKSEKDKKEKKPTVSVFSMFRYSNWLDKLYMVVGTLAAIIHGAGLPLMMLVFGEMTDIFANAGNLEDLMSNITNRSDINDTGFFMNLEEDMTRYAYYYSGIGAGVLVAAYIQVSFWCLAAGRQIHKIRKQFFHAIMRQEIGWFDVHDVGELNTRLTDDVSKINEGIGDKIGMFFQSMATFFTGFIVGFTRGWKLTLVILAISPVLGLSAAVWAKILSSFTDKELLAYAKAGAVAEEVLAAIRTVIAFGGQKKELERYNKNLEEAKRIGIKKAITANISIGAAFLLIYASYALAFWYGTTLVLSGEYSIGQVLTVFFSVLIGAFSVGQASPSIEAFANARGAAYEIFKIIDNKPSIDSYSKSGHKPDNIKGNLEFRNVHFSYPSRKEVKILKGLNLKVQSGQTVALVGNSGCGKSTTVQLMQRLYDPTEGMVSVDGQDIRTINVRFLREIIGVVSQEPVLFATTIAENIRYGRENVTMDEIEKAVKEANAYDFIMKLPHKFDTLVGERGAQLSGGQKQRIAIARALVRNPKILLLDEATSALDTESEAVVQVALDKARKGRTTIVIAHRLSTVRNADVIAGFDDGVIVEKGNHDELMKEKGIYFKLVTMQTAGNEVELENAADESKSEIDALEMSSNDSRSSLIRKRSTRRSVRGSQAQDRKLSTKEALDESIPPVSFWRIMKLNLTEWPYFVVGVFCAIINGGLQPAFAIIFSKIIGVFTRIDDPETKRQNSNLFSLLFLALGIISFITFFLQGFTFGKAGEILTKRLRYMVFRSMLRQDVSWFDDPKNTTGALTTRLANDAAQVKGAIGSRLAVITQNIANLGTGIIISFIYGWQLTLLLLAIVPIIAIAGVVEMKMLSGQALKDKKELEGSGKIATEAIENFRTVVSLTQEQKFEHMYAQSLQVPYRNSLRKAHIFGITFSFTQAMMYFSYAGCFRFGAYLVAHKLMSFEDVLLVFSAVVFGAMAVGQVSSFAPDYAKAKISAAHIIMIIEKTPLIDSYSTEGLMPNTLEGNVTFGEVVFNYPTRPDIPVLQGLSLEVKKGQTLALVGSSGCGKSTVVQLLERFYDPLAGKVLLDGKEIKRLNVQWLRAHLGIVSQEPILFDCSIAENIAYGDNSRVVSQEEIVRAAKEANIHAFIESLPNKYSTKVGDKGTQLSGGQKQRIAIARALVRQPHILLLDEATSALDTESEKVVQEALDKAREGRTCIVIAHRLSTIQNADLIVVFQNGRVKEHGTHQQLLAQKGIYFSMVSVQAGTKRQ

| SMILES | CC50 [1] [nM] | Selectivity [1] | CC50 at 7 days [2] [nM] | Papp A→B at 2 h, 1 µM [3] [×10⁻⁶ cm/s] | efflux ratio at 2 h, 1 μM (BCRP) | efflux ratio at 2 h, 1 μM (MDR1) |
| --- | --- | --- | --- | --- | --- | --- |
| C[C@@H]1C[C@@H]2Oc3nc(C(F)(F)F)ccc3[C@@H]2N(C(=O)C(=O)Nc2cnc(N)c3c2cnn3C)C1 [Example Ca-8, N-(7-amino-1-methyl-1H-pyrazolo[3,4-c]pyridin-4-yl)-2-((3R,4aS,9bS)-3-methyl-7-(trifluoromethyl)-3,4,4a,9b-tetrahydrofuro[2,3-b:4,5-b′]dipyridin-1(2H)-yl)-2-oxoacetamide] | 13 | 93 | 1200 | 19.7 | 9 | 2.5 |
| Cn1ncc2c(NC(=O)C(=O)N3CC4(CC4)C[C@@H]4Oc5cc(C(F)(F)F)ccc5[C@@H]43)cnc(N)c21 [Example Ca-5, N-(7-amino-1-methyl-1H-pyrazolo[3,4-c]pyridin-4-yl)-2-oxo-2-((4aS,9bS)-7-(trifluoromethyl)-4a,9b-dihydro-2H-spiro[benzofuro[3,2-b]pyridine-3,1′-cyclopropan]-1(4H)-yl)acetamide] | 8 | 73 | 589 | 11.6 | 0.44 | 0.99 |
| Cn1ncc2c(NC(=O)C(=O)N3CCC[C@@H]4Oc5cc(OC(F)(F)F)cc(F)c5[C@@H]43)cnc(N)c21 [Example Ca-6, N-(7-amino-1-methyl-1H-pyrazolo[3,4-c]pyridin-4-yl)-2-((4aS,9bS)-9-fluoro-7-(trifluoromethoxy)-3,4,4a,9b-tetrahydrobenzofuro[3,2-b]pyridin-1(2H)-yl)-2-oxoacetamide] | 13 | 144 | 1880 | 9.3 | 2.6 | 0.9 |
